These results are taken from patent US20040097587A1, “Compositions and methods of treatment of ulcerating diseases, burns, and related conditions” (priority 2003, published 2004).

This test deals with venous ulcer. Description: Case of a person with venous ulcer and related conditions treated with oral isotretinoin. In kind it is in vivo, human. The note with it: approximately 80 milligrams per day for two months. The text has this:
Preferred unit dosage formulations are those containing a daily dose or unit, daily sub-dose, or an appropriate fraction thereof, of the administered ingredient. […] Acad. of Dermatol, 45, 462-465, which is herein incorporated by reference.

Take `CC1=C(/C=C/C(C)=C/C=C/C(C)=C\C(=O)O)C(C)(C)CCC1` [isotretinoin, 13-cis-retinoic acid]: where the note is “person having venous ulcer and related conditions for five months”, the “overall clinical outcome of venous ulcer and related conditions” value is given as “significant improvement”. Moreover, where the note is “person”, the lesions result is listed as “improved”, the venous ulcer healing result is listed as “healed” and the vessel prominence result is given as “significantly decreased”.
